Our source for the IC50, hepatocyte CLint and logD values is ChEMBL document CHEMBL4477207, “Discovery of Novel 3-Quinoline Carboxamides as Potent, Selective, and Orally Bioavailable Inhibitors of Ataxia Telangiectasia Mutated (ATM) Kinase” (J Med Chem, 2016).

Usually IC50 stands for the concentration at which inhibition is half-maximal. As a reminder, the hepatocyte CLint is the rate of metabolic loss divided by the concentration. In general, logD refers to the decadic logarithm of the distribution of all forms, ionised or not, between an organic phase and buffer at a given pH. Higher therefore signals higher lipophilicity.
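Wherever logD is given: determined by the shake flask method.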

One data set deals with Serine-protein kinase ATM (Homo sapiens, UniProt Q13315). Put plainly: Inhibition of ATM phosphorylation at Ser-1981 residue in human HT-29 cells incubated for 1 hr followed by X-ray irradiation by Hoechst staining based fluorescence plate reader analysis. In kind it is cell-based.
Sequence of Serine-protein kinase ATM (Q13315 whole entry): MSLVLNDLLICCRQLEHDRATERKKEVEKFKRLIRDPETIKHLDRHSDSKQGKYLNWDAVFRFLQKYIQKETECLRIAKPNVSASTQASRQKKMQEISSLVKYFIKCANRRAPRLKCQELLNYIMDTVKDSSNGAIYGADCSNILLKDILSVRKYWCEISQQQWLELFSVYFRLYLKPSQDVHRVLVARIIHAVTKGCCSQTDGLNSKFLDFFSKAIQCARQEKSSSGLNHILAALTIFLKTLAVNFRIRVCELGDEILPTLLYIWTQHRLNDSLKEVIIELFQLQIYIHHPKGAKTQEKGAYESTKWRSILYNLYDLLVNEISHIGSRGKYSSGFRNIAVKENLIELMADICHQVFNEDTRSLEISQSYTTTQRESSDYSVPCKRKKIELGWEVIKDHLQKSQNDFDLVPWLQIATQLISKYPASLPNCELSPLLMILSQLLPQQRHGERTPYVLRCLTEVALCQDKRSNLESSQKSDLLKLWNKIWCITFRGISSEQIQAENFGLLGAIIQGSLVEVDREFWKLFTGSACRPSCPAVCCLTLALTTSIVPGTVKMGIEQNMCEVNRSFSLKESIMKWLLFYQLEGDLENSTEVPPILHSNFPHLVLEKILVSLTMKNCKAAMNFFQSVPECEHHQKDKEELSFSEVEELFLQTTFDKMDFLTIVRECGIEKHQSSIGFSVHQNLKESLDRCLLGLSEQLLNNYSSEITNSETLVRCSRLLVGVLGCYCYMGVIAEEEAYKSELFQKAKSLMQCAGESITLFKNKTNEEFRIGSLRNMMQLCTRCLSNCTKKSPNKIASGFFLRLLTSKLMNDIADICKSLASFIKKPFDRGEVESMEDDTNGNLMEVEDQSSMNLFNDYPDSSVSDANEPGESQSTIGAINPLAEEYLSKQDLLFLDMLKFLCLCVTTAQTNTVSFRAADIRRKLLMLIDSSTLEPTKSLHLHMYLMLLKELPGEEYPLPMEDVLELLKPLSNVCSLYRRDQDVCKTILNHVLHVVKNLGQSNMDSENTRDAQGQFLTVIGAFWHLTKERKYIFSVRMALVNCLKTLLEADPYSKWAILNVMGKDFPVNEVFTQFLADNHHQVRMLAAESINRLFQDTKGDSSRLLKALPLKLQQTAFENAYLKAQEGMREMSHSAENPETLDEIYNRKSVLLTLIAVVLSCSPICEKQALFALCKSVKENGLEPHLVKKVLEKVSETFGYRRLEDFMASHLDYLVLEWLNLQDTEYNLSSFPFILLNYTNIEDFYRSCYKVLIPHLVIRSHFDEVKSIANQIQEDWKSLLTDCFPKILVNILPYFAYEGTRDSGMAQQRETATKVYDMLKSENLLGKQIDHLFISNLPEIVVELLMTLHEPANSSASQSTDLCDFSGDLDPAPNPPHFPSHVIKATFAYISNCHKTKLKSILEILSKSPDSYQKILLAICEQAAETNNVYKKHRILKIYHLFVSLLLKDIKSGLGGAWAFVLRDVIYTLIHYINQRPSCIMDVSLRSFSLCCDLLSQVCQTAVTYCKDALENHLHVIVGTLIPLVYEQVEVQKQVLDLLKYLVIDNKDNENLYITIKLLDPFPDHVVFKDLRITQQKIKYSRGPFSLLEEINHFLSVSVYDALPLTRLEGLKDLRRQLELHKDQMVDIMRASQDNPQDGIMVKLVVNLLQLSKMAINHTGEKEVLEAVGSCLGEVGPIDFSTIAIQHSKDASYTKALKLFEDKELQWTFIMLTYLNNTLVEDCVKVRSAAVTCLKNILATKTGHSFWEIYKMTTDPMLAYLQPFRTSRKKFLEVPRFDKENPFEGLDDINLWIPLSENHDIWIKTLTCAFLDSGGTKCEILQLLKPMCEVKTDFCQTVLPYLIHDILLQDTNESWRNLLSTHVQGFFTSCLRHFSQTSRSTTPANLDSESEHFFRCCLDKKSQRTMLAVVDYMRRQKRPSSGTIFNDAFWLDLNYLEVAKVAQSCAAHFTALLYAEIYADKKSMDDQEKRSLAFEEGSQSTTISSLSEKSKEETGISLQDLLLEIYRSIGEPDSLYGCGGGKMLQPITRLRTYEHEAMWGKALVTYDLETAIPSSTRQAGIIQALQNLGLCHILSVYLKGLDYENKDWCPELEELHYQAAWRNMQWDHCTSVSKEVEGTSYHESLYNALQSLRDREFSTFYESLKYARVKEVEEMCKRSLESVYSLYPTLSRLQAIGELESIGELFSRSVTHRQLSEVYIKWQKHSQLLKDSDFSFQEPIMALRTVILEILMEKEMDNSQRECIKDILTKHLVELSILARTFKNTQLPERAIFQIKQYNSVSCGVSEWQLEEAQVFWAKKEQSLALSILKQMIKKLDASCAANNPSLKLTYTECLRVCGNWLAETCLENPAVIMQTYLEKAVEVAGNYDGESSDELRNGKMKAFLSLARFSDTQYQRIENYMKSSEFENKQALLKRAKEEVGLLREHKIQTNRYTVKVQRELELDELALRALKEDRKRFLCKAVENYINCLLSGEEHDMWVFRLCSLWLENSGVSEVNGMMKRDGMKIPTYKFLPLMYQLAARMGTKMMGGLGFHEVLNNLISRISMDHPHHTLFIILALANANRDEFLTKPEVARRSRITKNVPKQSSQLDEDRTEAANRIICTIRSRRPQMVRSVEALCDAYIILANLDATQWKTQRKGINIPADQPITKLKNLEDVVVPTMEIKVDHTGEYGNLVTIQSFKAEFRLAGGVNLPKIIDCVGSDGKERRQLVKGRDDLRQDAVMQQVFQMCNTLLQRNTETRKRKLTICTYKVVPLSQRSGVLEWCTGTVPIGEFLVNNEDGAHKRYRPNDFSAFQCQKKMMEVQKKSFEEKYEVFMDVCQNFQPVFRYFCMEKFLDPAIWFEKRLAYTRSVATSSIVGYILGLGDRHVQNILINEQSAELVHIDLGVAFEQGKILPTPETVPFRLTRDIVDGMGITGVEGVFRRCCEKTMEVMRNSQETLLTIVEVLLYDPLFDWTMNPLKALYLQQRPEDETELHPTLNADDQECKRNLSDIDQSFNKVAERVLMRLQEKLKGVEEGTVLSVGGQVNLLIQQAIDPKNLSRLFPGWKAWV
Conditions: not given
As for `C[C@@H](Nc1c(C(N)=O)cnc2ccc(-c3cccnc3)cc12)c1ccn(C)n1`, 1.13 µM corresponded to half-maximal inhibition (IC50).

In turn, `CCC(CC)CNc1c(C(N)=O)cnc2c(C)cc(-c3cccnc3)cc12` returned an IC50 of 6 µM.

As to `CCC(CC)CNc1c(C(N)=O)cnc2ccc(-c3ccnnc3)cc12`, the IC50 was found to be 0.908 µM.

Regarding `CCC(CC)CNc1c(C(N)=O)cnc2ccc(-c3ccc(C)nc3)cc12`, the IC50 is 0.05 µM.

Turning to `NC(=O)c1cnc2ccc(-c3cccnc3)cc2c1NC1CCOCC1`, 0.954 µM corresponded to half-maximal inhibition (IC50).

Consider `NC(=O)c1cnc2ccc(-c3cccnc3)cc2c1NC1CCCCC1`, for which half-maximal inhibition (IC50) was put at 0.132 µM.

On to `COCc1ccc(-c2ccc3ncc(C(N)=O)c(N[C@@H](C)c4ccn(C)n4)c3c2)c(F)n1`, for which the midpoint of inhibition, the IC50, lay at 0.063 µM.

Turning to `NC(=O)c1cnc2ccc(-c3cccnc3)cc2c1NCC1CCOCC1`, the IC50 stood at 3.23 µM.

The compound `NC(=O)c1cnc2cc(F)c(-c3cccnc3)cc2c1NC1CCOCC1` showed an IC50 of 0.606 µM.

Consider `COCc1ccc(-c2cc3c(N[C@@H](C)c4nn(C)cc4F)c(C(N)=O)cnc3cc2F)cn1`, for which the midpoint of inhibition, the IC50, lay at 0.019 µM.

With `CCC(CC)CNc1c(C(N)=O)cnc2ccc(-c3cccnn3)cc12`, inhibition was half-maximal at 0.571 µM (IC50).

`COCc1ccc(-c2cc3c(N[C@@H](C)C4CCOCC4)c(C(N)=O)cnc3cc2F)cn1` returned an IC50 of 0.052 µM.

Take `CCC(CC)CNc1c(C(N)=O)cnc2ccc(-c3cncnc3)cc12`: 1.84 µM corresponded to half-maximal inhibition (IC50).

Turning to `CCC(CC)CNc1c(C(N)=O)cnc2ccc(-c3cccnc3)cc12`, the half-inhibitory concentration (IC50) was 0.073 µM.

For a further data set, the target named is Serine/threonine-protein kinase ATR (Homo sapiens, UniProt Q13535). Put plainly: Inhibition of ATR in human HT-29 cells assessed as reduction in Chk1 phosphorylation at Ser-345 residue after 60 mins in presence of 4-nitroquinoline-1-oxide by Hoechst 33258 staining based plate reader analysis. The data set is classed as cell-based.
Conditions: not given
On to `C[C@@H](Nc1c(C(N)=O)cnc2ccc(-c3cccnc3)cc12)c1ccn(C)n1`, for which the IC50 is greater than 18 µM.

For the compound `CCC(CC)CNc1c(C(N)=O)cnc2c(C)cc(-c3cccnc3)cc12`, the IC50 is greater than 30 µM.

For the compound `CCC(CC)CNc1c(C(N)=O)cnc2ccc(-c3ccnnc3)cc12`, the IC50 amounted to 2.6 µM.

Consider `CCC(CC)CNc1c(C(N)=O)cnc2ccc(-c3ccc(C)nc3)cc12`, for which the IC50 is 5.5 µM.

Take `NC(=O)c1cnc2ccc(-c3cccnc3)cc2c1NC1CCOCC1`: the IC50 stood at 3.1 µM.

With `NC(=O)c1cnc2ccc(-c3cccnc3)cc2c1NC1CCCCC1`, the IC50 was found to be 3.2 µM.

For `COCc1ccc(-c2ccc3ncc(C(N)=O)c(N[C@@H](C)c4ccn(C)n4)c3c2)c(F)n1`, the IC50 is greater than 25 µM.

Turning to `COCc1ccc(-c2cc3c(N[C@@H](C)c4ccn(C)n4)c(C(N)=O)cnc3cc2F)c(F)n1`, the half-maximal inhibitory concentration (IC50) is greater than 30 µM.

For `NC(=O)c1cnc2ccc(-c3cccnc3)cc2c1NCC1CCOCC1`, the half-inhibitory concentration (IC50) is 11 µM.

With `NC(=O)c1cnc2cc(F)c(-c3cccnc3)cc2c1NC1CCOCC1`, the IC50 is greater than 30 µM.

With `COCc1ccc(-c2cc3c(N[C@@H](C)c4nn(C)cc4F)c(C(N)=O)cnc3cc2F)cn1`, the IC50 was greater than 30 µM.

Regarding `CCC(CC)CNc1c(C(N)=O)cnc2ccc(-c3cccnn3)cc12`, the IC50 was greater than 15 µM.

Consider `COCc1ccc(-c2cc3c(N[C@@H](C)C4CCOCC4)c(C(N)=O)cnc3cc2F)cn1`, for which the IC50 is greater than 30 µM.

Consider `CCC(CC)CNc1c(C(N)=O)cnc2ccc(-c3cncnc3)cc12`, for which the IC50 was greater than 18 µM.

For `CCC(CC)CNc1c(C(N)=O)cnc2ccc(-c3cccnc3)cc12`, the IC50 is greater than 11 µM.

The next data set deals with Voltage-gated inwardly rectifying potassium channel KCNH2 (Homo sapiens, UniProt Q12809).
Sequence of Voltage-gated inwardly rectifying potassium channel KCNH2 (Q12809 whole entry): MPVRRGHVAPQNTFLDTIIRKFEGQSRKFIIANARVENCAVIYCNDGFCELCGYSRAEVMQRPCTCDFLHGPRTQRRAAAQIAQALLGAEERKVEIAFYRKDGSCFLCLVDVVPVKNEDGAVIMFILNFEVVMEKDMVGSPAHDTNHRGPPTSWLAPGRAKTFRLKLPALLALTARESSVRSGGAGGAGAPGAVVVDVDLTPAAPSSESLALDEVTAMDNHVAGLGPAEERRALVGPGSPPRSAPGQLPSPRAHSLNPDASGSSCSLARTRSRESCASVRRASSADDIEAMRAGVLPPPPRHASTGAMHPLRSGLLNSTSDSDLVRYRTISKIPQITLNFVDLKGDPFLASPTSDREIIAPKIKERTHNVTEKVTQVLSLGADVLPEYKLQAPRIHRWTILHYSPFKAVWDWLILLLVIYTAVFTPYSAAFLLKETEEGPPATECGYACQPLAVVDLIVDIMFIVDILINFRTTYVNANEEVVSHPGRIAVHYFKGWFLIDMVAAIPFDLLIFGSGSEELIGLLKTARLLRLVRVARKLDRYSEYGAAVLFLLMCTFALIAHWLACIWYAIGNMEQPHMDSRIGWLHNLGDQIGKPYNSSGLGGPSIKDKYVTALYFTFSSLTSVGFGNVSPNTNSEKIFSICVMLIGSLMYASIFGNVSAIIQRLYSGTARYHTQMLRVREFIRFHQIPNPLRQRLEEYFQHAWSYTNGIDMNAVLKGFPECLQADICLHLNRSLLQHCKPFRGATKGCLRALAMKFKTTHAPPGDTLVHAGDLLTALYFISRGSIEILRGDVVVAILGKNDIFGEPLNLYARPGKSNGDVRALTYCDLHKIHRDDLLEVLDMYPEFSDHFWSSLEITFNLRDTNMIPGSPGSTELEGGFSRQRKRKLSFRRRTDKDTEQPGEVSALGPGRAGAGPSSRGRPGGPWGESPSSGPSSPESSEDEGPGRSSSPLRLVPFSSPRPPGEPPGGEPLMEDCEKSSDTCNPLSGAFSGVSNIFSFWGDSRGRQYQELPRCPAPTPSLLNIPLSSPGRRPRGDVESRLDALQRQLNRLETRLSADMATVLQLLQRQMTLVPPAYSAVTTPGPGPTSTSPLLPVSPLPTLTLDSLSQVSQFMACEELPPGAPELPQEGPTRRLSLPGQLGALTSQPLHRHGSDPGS
Assay: not given
Conditions: not given
`C[C@@H](Nc1c(C(N)=O)cnc2ccc(-c3cccnc3)cc12)c1ccn(C)n1` registered an IC50 of 2.8 µM.

System in a further data set: not listed separately
The data set can be described thus: in vitro. The note with it: human, hepatocytes.
As for `C[C@@H](Nc1c(C(N)=O)cnc2ccc(-c3cccnc3)cc12)c1ccn(C)n1`, the intrinsic metabolic clearance (hepatocyte CLint) at 1.5 h is 3.4 µL/min/1e6 cells.

In the case of `CCC(CC)CNc1c(C(N)=O)cnc2ccc(-c3ccnnc3)cc12`, the hepatocyte CLint at 1.5 h is 18 µL/min/1e6 cells.

As to `CCC(CC)CNc1c(C(N)=O)cnc2ccc(-c3ccc(C)nc3)cc12`, the hepatocyte CLint at 1.5 h was 7.3 µL/min/1e6 cells.

Compound `NC(=O)c1cnc2ccc(-c3cccnc3)cc2c1NC1CCOCC1` came in with a hepatocyte CLint at 1.5 h of less than 4.2 µL/min/1e6 cells.

Turning to `NC(=O)c1cnc2ccc(-c3cccnc3)cc2c1NC1CCCCC1`, the hepatocyte CLint at 1.5 h turned out to be 34 µL/min/1e6 cells.

With `COCc1ccc(-c2ccc3ncc(C(N)=O)c(N[C@@H](C)c4ccn(C)n4)c3c2)c(F)n1`, the hepatocyte CLint at 1.5 h amounted to 5.7 µL/min/1e6 cells.

In turn, `NC(=O)c1cnc2ccc(-c3cccnc3)cc2c1NCC1CCOCC1` registered a hepatocyte CLint at 1.5 h of 12 µL/min/1e6 cells.

As to `NC(=O)c1cnc2cc(F)c(-c3cccnc3)cc2c1NC1CCOCC1`, the hepatocyte CLint at 1.5 h was determined as 5.5 µL/min/1e6 cells.

In the case of `COCc1ccc(-c2cc3c(N[C@@H](C)c4nn(C)cc4F)c(C(N)=O)cnc3cc2F)cn1`, the hepatocyte CLint at 1.5 h was determined as 5.5 µL/min/1e6 cells.

`CCC(CC)CNc1c(C(N)=O)cnc2ccc(-c3cncnc3)cc12`: the hepatocyte CLint at 1.5 h was found to be 46 µL/min/1e6 cells.

On to `CCC(CC)CNc1c(C(N)=O)cnc2ccc(-c3cccnc3)cc12`, for which the hepatocyte CLint at 1.5 h is 43 µL/min/1e6 cells.

System in another data set: not listed separately
The data set can be described thus: in vitro. The note with it: rat, hepatocytes.
`C[C@@H](Nc1c(C(N)=O)cnc2ccc(-c3cccnc3)cc12)c1ccn(C)n1`: the hepatocyte CLint at 1.5 h came to 120 µL/min/1e6 cells.

With `CCC(CC)CNc1c(C(N)=O)cnc2ccc(-c3ccnnc3)cc12`, the hepatocyte CLint at 1.5 h worked out at 95 µL/min/1e6 cells.

`CCC(CC)CNc1c(C(N)=O)cnc2ccc(-c3ccc(C)nc3)cc12` returned a hepatocyte CLint at 1.5 h of 150 µL/min/1e6 cells.

As for `NC(=O)c1cnc2ccc(-c3cccnc3)cc2c1NC1CCOCC1`, the hepatocyte CLint at 1.5 h was found to be 8.5 µL/min/1e6 cells.

`NC(=O)c1cnc2ccc(-c3cccnc3)cc2c1NC1CCCCC1` returned a hepatocyte CLint at 1.5 h of 70 µL/min/1e6 cells.

`COCc1ccc(-c2ccc3ncc(C(N)=O)c(N[C@@H](C)c4ccn(C)n4)c3c2)c(F)n1` registered a hepatocyte CLint at 1.5 h of 6.4 µL/min/1e6 cells.

The compound `NC(=O)c1cnc2ccc(-c3cccnc3)cc2c1NCC1CCOCC1` showed a hepatocyte CLint at 1.5 h of 19 µL/min/1e6 cells.

For `NC(=O)c1cnc2cc(F)c(-c3cccnc3)cc2c1NC1CCOCC1`, the hepatocyte CLint at 1.5 h worked out at 13 µL/min/1e6 cells.

Take `COCc1ccc(-c2cc3c(N[C@@H](C)c4nn(C)cc4F)c(C(N)=O)cnc3cc2F)cn1`: the intrinsic clearance (hepatocyte CLint) at 1.5 h stood at 4.8 µL/min/1e6 cells.

`CCC(CC)CNc1c(C(N)=O)cnc2ccc(-c3cncnc3)cc12` gave a hepatocyte CLint at 1.5 h of 140 µL/min/1e6 cells.

The compound `CCC(CC)CNc1c(C(N)=O)cnc2ccc(-c3cccnc3)cc12` came in with a hepatocyte CLint at 1.5 h of 140 µL/min/1e6 cells.

System in the next data set: not listed separately
Put plainly: physchem. To be noted: octanol/buffer, pH 7.4.
`C[C@@H](Nc1c(C(N)=O)cnc2ccc(-c3cccnc3)cc12)c1ccn(C)n1` yielded a logD of 2.3.

With `CCC(CC)CNc1c(C(N)=O)cnc2ccc(-c3ccnnc3)cc12`, the logD came to 3.1.

Turning to `CCC(CC)CNc1c(C(N)=O)cnc2ccc(-c3ccc(C)nc3)cc12`, the logD was greater than 4.3.

`NC(=O)c1cnc2ccc(-c3cccnc3)cc2c1NC1CCOCC1` yielded a logD of 1.9.

`NC(=O)c1cnc2ccc(-c3cccnc3)cc2c1NC1CCCCC1` displayed a logD of 3.8.

With `COCc1ccc(-c2ccc3ncc(C(N)=O)c(N[C@@H](C)c4ccn(C)n4)c3c2)c(F)n1`, the logD is 2.6.

In turn, `NC(=O)c1cnc2ccc(-c3cccnc3)cc2c1NCC1CCOCC1` yielded a log distribution coefficient (logD) of 2.1.

For `NC(=O)c1cnc2cc(F)c(-c3cccnc3)cc2c1NC1CCOCC1`, the logD was found to be 2.1.

Compound `COCc1ccc(-c2cc3c(N[C@@H](C)c4nn(C)cc4F)c(C(N)=O)cnc3cc2F)cn1` had a logD of 3.

In the case of `CCC(CC)CNc1c(C(N)=O)cnc2ccc(-c3cncnc3)cc12`, the pH-dependent lipophilicity (logD) was determined as 3.3.

On to `CCC(CC)CNc1c(C(N)=O)cnc2ccc(-c3cccnc3)cc12`, for which the logD came to 4.
